From patent publication US5521159A, “Partially modified and retro-inverted tetrapeptides analogues of C-reactive protein fragments” (Italfarmaco S.p.A., priority 1992, dated 1996)

Experiments:
murine peritoneal cells = experiment: Stimulation of the nitric oxide by murine peritoneal cells (chemiluminescence); type: cell-based, BALB/C mice; conditions: with lipopolysaccharide 30 μg/ml, 96 hours; for nitric oxide, Stimulation index: with respect to control; for nitric oxide content: control 20
Description: Stimulation of the nitric oxide by murine peritoneal cells
The peritoneal cells were obtained as described in the previous test, and incubated for 96 hours at 37° C. in the presence of the compounds in question and of lipopolysaccharide at a concentration of 30 μg/ml. At the end of the treatment the supernatants were collected and the nitric oxide content was determined by the chemiluminescence test described by Palmer R. M. J. et al, Nature, 327, 524, 1987.

Leishmania major = experiment: Effect on the leishmanicidal activity of murine peritoneal macrophage (3H-thymidine incorporation); type: cell-based; conditions: for 3H-thymidine incorporation by living parasites, cpm (counts per minute): 24 hours pre-incubation of macrophages, control 18,273; for % reduciton of infection: versus control
Description: Effect on the leishmanicidal activity of murine peritoneal macrophage
The peritoneal cells collected as described above were seeded in 96-well flat bottom plates (Nunc, Roskiled, DK) at a concentration of 10^5 /100 μl; and incubated per 24 hours at 37° C. At the end of the treatment, the cells not adherent to the well were separated and discharged, whereas the adherent cells were washed three time with culture medium and incubated for 24 hours with the compounds in question, then the cells were infected through a 24 hours incubation with promastigotes of Leishmania major (L. major, PVL49 strain supplied by Dr. Neal R. A., London School of Hygiene and Tropical Medicine, London, UK). At the end of the infection treatment each well was added with 100 μl of a 0.01% solution od sodium dodecylsulphate in RPMI 1640, and the plates were incubated for 30 minutes at 37° C. The Schneider's culture medium (Schneider Drosophila medium, Gibco Lab., Grand island, N.Y., USA) with 30% of FCS was added. Each well was added with 1 μCi of ^3 H-thymidine, and a 72 hours incubation was carried out at 37° C. The incorporation of radioactivity by the living parasites inside the peritoneal cells, which is correlated to the infection degree and consequently to the leishmanicidal activity of the cells, was measured by collecting the cells by means of a cell-harvester and measuring the radioactivity with liquid scintillation β-counter.

[1] = tested on: BALB/C mice inoculated with LPS; experiment: In vivo protection against septic shock (LPS-inoculated mice); conditions: LPS 50 mg/kg intraperitoneally, checked for 8 days
Description: Evaluation of the in vivo protection against septic shock
BALB/C mice (6 mice/group) weighting between 20 and 25 g, were intraperitoneally inoculated with 50 mg/kg of LPS (lipopolysaccharide-Sigma). The groups, except for the control, were inoculated with increasing doses of one of the compounds of the invention dissolved in physiologic solution having a final volume of 0.5 ml, at time 0 (i.e. together with LPS) or 30 minutes after the LPS inoculation. The mice were checked for 8 days to determined the survival percentage. Compound of Example 1 yields a survival percentage of about 65% at doses of 6.2 ug/mouse and 0.62 ug/mouse, and its isomer B yields a survival percentage of about 80% at a dose of 6.25 ug/mouse and of 75% at a dose of 62.5 ug/mouse.

murine splenocytes = experiment: Stimulation of in vitro IFN-.tau. production by murine splenocytes (ELISA); type: cell-based, BALB/C mice; conditions: for IFN-.tau. production, Stimulation index / IFN-.tau. production, U/ml: 24 hours; for IFN-.tau. production, Stimulation index: with respect to untreated cells; for IFN-.tau. production, U/ml: control 31 (Ex.1, Ex.2), 41 (Ex.3)
Description: Stimulation of in vitro IFN-.tau. production by murine splenocytes
The splenic cells were obtained from spleen of BALB/C mice as single cells suspension. The splenocytes thus obtained were resuspended in RPMI 1640 culture medium (Flow Lab., Hertz, UK) containing 5% of fetal calf serum (FCS) (HyClone, ST, Utah, USA) at a final concentrazione of 10^7 cells/ml, and incubated in 96-well plates for 24 hours at 37° C. in the presence of the tested compounds at the indicated concentration. At the end of the incubation the supernatant was collected, filtered by […] filter and freezed to -80° C. until the time of the test carried out by ELISA commercial kit (Genzyme, Boston, Mass., USA).

[2] = tested on: murine peritoneal macrophages; experiment: Stimulation of IL-1 production by murine peritoneal macrophages (ELISA); type: cell-based, BALB/C mice; conditions: 96 hours; for IL-1 production, Stimulation index: with respect to control; for IL-1 production, U/ml: control 15
From the text: Stimulation of IL-1 production by murine peritoneal macrophages
Murine peritoneal macrophages were obtained by inoculation of a solution of hydrolized starch (BDH Chemicals, Poole, Dorset, UK) into the peritoneal cavity of BALB/C. mice, three days before sacrificing the animals. The peritoneal cells were then collected by washing the peritoneal cavity with a solution of RPMI 1640 containing 10% of FCS, and resuspended in the same solution at a concetration of 10^6 cells/ml in 96-well plates. The incubation was performed for 96 hours at 37° C. in the presence of the compounds in question. At the end of the treatment the supernatants were collected and used for dosing cytokine by means of a suitable ELISA commerical kit (Genzyme, Boston, Mass., USA).

Row | Molecule | nitric oxide, Stimulation index (murine peritoneal cells; 0.01 μg/ml) | nitric oxide content (murine peritoneal cells; 0.01 μg/ml) | nitric oxide, Stimulation index (murine peritoneal cells; 0.1 μg/ml) | nitric oxide content (murine peritoneal cells; 0.1 μg/ml) | nitric oxide, Stimulation index (murine peritoneal cells; 1.0 μg/ml) | nitric oxide content (murine peritoneal cells; 1.0 μg/ml) | nitric oxide, Stimulation index (murine peritoneal cells; 10.0 μg/ml) | nitric oxide content (murine peritoneal cells; 10.0 μg/ml) | 3H-thymidine incorporation by living parasites, cpm (counts per minute) (Leishmania major; 0.1 μg/ml) | % reduciton of infection (Leishmania major; 0.1 μg/ml) | 3H-thymidine incorporation by living parasites, cpm (counts per minute) (Leishmania major; 1.0 μg/ml) | % reduciton of infection (Leishmania major; 1.0 μg/ml) | 3H-thymidine incorporation by living parasites, cpm (counts per minute) (Leishmania major; 10.0 μg/ml) | % reduciton of infection (Leishmania major; 10.0 μg/ml) | IFN-.tau. production, Stimulation index (murine splenocytes; 0.1 μg/ml) | IFN-.tau. production, U/ml (murine splenocytes; 0.1 μg/ml) | IFN-.tau. production, Stimulation index (murine splenocytes; 1.0 μg/ml) | IFN-.tau. production, U/ml (murine splenocytes; 1.0 μg/ml) | IFN-.tau. production, Stimulation index (murine splenocytes; 10.0 μg/ml) | IFN-.tau. production, U/ml (murine splenocytes; 10.0 μg/ml) | other results
1 | N=C(N)NCCC[C@H](NC(=O)[C@@H]1CCCN1C(=O)C(CCCCN)C(=O)NCN)C(=O)O (single isomer, unassigned) [Ex.1] | 2.2 | 43 nmol/mL | 3.0 | 59 nmol/mL | 3.9 | 77 nmol/mL | 2.9 | 57 nmol/mL | 5,096 cpm | over 70% | 3,783 cpm | 79% | 4,292 cpm | 77% | 1.1 | 33 U/ml | 1.9 | 60 U/ml | 1.6 | 49 U/ml | % reduciton of infection (Leishmania major; 0.1 μg/ml, listed as Es. 1): 72%; reduction of the infection degree, result in words (Leishmania major; 0.1 to 10.0 μg/ml): the utmost effective; survival percentage ([1]; 0.62 ug/mouse): about 65%; survival percentage ([1]; 6.2 ug/mouse): about 65%; IFN-.tau. production, Stimulation index (murine splenocytes; 1.0 μg/ml, listed as example 1): doubled; stimulation of IFN-.tau. production, result in words (murine splenocytes; 0.1 to 10.0 μg/ml): the most powerful one of the present class; IL-1 production, Stimulation index ([2]; 0.01 μg/ml): 0.4; IL-1 production, U/ml ([2]; 0.01 μg/ml): 6 U/ml; IL-1 production, Stimulation index ([2]; 0.1 μg/ml): 0.1; IL-1 production, U/ml ([2]; 0.1 μg/ml): 2 U/ml; IL-1 production, Stimulation index ([2]; 1.0 μg/ml): 0.1; IL-1 production, U/ml ([2]; 1.0 μg/ml): 2 U/ml; IL-1 production, Stimulation index ([2]; 10.0 μg/ml): 0.1; IL-1 production, U/ml ([2]; 10.0 μg/ml): 2 U/ml
2 | N=C(N)NCCC[C@H](NC(=O)[C@@H]1CCCN1C(=O)C(CCCCN)C(=O)NCN)C(=O)O (single isomer, unassigned) [isomer B] | – | – | – | – | – | – | – | – | – | – | – | – | – | – | – | – | – | – | – | – | survival percentage ([1]; 6.25 ug/mouse): about 80%; survival percentage ([1]; 62.5 ug/mouse): 75%
3 | H-gThr-(R,S)mLys-Pro-Gln-OH.AcOH [Ex.3] | 2.5 | 50 nmol/mL | 3.0 | 60 nmol/mL | 3.3 | 66 nmol/mL | 4.4 | 88 nmol/mL | 18,826 cpm | -3% | 8,377 cpm | 54% | 7,842 cpm | 57% | 1.5 | 60 U/ml | 1.5 | 60 U/ml | 1.7 | 68 U/ml | IL-1 production, Stimulation index ([2]; 0.01 μg/ml): 10.0; IL-1 production, U/ml ([2]; 0.01 μg/ml): 150 U/ml; IL-1 production, Stimulation index ([2]; 0.1 μg/ml): 10.7; IL-1 production, U/ml ([2]; 0.1 μg/ml): 160 U/ml; IL-1 production, Stimulation index ([2]; 1.0 μg/ml): 10.3; IL-1 production, U/ml ([2]; 1.0 μg/ml): 155 U/ml; IL-1 production, Stimulation index ([2]; 10.0 μg/ml): 9.3; IL-1 production, U/ml ([2]; 10.0 μg/ml): 140 U/ml
4 | H-gThr-R,S)mLys-Pro-LeU-OH.AcOH [Ex.2] | 4.3 | 85 nmol/mL | 3.1 | 61 nmol/mL | 3.3 | 66 nmol/mL | 4.0 | 79 nmol/mL | 17,568 cpm | 4% | 11,991 cpm | 34% | 10,582 cpm | 42% | 1.8 | 57 U/ml | 1.7 | 52 U/ml | 1.9 | 60 U/ml | IL-1 production, Stimulation index ([2]; 0.01 μg/ml): 6.0; IL-1 production, U/ml ([2]; 0.01 μg/ml): 90 U/ml; IL-1 production, Stimulation index ([2]; 0.1 μg/ml): 4.0; IL-1 production, U/ml ([2]; 0.1 μg/ml): 60 U/ml; IL-1 production, Stimulation index ([2]; 1.0 μg/ml): 3.1; IL-1 production, U/ml ([2]; 1.0 μg/ml): 47 U/ml; IL-1 production, Stimulation index ([2]; 10.0 μg/ml): 3.3; IL-1 production, U/ml ([2]; 10.0 μg/ml): 50 U/ml
